Source: patent publication US9394295B2, “Antibacterial homopiperidinyl substituted 3,4-dihydro-1H-[1,8]naphthyridinones” (Janssen Sciences Ireland UC, priority 2011, dated 2016)
In brackets after ≈: the same amount, converted by molar mass. Read-outs that look alike come from different tables or passages of the source.

What was measured:
[1] = target: T1, S. aureus ATCC 29213 FabI (Staphylococcus aureus, UniProt Q6GI75); assay: Staphylococcus aureus FabI enzyme inhibition assay; assay type: biochemical; conditions: 30 minutes at room temperature, NADH consumption
T1 sequence (Q6GI75 1-256): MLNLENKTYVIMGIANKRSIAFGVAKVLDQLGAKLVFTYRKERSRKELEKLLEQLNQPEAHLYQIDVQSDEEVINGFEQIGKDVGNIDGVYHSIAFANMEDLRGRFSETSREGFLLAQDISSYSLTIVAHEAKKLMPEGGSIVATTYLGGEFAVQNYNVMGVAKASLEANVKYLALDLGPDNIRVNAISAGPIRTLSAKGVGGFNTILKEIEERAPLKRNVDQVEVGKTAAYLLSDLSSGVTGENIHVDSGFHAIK
Description: FabI enzyme inhibition assays were carried out in half-area, 384-well microtitre plates. Compounds were evaluated in 40-μl assay mixtures containing 100 mM NaADA, pH 6.5 (ADA=N-[2-acetamido]-2iminodiacetic acid), 250 μM crotonoyl-CoA, 625 μM NADH and 50 μg/ml S. aureus ATCC 29213 FabI Inhibitors were typically varied over the range of 50 to 0.39 μM. The reaction mixtures were incubated for 30 minutes at room temperature and the reaction was stopped by adding 200 mM Tris buffer (pH 9.0) to create a pH-shift. The consumption of NADH was monitored by measuring the change in absorbance at […]. By comparing sample readings to those of negative (absence of compound) and positive (absence of enzyme) controls, the percent inhibition of enzymatic activity of the compounds was determined. A best-fit curve is fitted by a minimum of squares method. From this an IC50-value (expressed in μg/ml), resulting in 50% inhibition of enzymatic activity, was obtained.

[2] = Cytotoxicity MTT assay (TOX HELAM); assay type: cell-based; conditions: human, HelaM cells, read-out: TOX HELAM (222.125) CC50
Description: Cytotoxicity of the compounds was evaluated using the MTT assay. Human HelaM cells grown in 96-well plates were exposed to serial dilutions of the tested compounds (final volume of 0.2 ml) and incubated for 72 hours at 37° C. and 5% CO2. Inhibitors are typically varied over the range of 25 to 0.8 μM. The final DMSO concentration in the assay is 0.5%. MTT (3-(4,5-Dimethylthiazol-2-yl)-2,5-diphenyltetrazolium bromide, a tetrazole) was added and reduced to purple formazan only in living cells. Solubilization of the formazan crystals was achieved by adding 100 μl 2-propanol. Cell viability was determined by measuring the absorbance of the reduced formazan, giving a purple color, at 540 nm and 690 nm. The absorbance measured at 690 nm was automatically subtracted from the absorbance at 540 nm, to eliminate the effects of non-specific absorption. The percent cytotoxicity achieved by the compounds was calculated according to standard methods. Cytotoxicity is reported as CC50, the concentration that causes a 50% reduction in cell viability.
The results are depicted in the table D2 below (TOX HELAM).

[3] = Thermodynamic solubility / solubility in aqueous solution; assay type: physicochemical; conditions: thermodynamic from solid, 4 days at ambient temperature
Description: The pH solubility profiling was carried out at ambient temperature for a period of 4 days. A saturation solubility study was carried out in order to determine maximum solubility in a particular buffer solution. The compound was added to respective buffer solution until saturation point is reached. This was followed by shaking the flask for 4 days at ambient temperature. After 4 days, the solutions were filtered and injected on UPLC and the concentration was determined using a generic HPLC method.

S. aureus ATCC 29213 = assay: MIC broth microdilution (CLSI), S. aureus ATCC 29213; assay type: cell-based; conditions: Staphylococcus aureus, ATCC 29213 / MSSA, reference strain MSSA
Description: (§1) Minimum Inhibitory Concentrations (MICs) were determined in accordance with the Clinical and Laboratory Standards Institute (CLSI) methodology against aerobic bacteria (CLSI M07-A8) (see Clinical and Laboratory Standards Institute. 2009. Methods for dilution antimicrobial susceptibility tests for bacteria that grow aerobically. CLSI document M07-A8, Vol. 29, No. 2.) by the broth microdilution method with cation-adjusted Mueller-Hinton broth (CA-MHB) medium for the majority of organisms, except for Haemophilus influenza, where Haemophilis test medium (HTM) broth was used. Descriptions of the individual organisms can be found in the table. Where possible, ATCC standard strains were tested.
(§2) The inoculum density for the susceptibility testing was standardized to give a final inoculum of approximately 5×10^5 CFU/mL.
(§3) Stock solutions of the compounds were prepared in DMSO at concentrations of 1 mg/mL. Linezolid was prepared in DMSO at a concentration of 2 mg/mL. Stock solutions of all compounds were diluted into CA-MHB to give a range of two-fold dilutions, depending upon the sensitivity of the organism being tested.

S. aureus ATCC 43300 = assay: MIC broth microdilution (CLSI), S. aureus ATCC 43300; assay type: cell-based; conditions: Staphylococcus aureus, ATCC 43300 / MRSA, reference strain MRSA
Description: as §1, §2, §3

S. aureus NRS119 = assay: MIC broth microdilution (CLSI), S. aureus NRS119; assay type: cell-based; conditions: Staphylococcus aureus, LZD-R
Description: as §1, §2, §3

S. aureus NRS120 = assay: MIC broth microdilution (CLSI), S. aureus NRS120; assay type: cell-based; conditions: Staphylococcus aureus, LZD-R
Description: as §1, §2, §3

S. aureus NRS121 = assay: MIC broth microdilution (CLSI), S. aureus NRS121; assay type: cell-based; conditions: Staphylococcus aureus, LZD-R
Description: as §1, §2, §3

[4] = aqueous buffer, Buffer pH 2, read-out: Solubility, Buffer pH 2
[5] = aqueous buffer, Buffer pH 4, read-out: Solubility, Buffer pH 4
[6] = aqueous buffer, Buffer pH 7.4, read-out: Solubility, Buffer pH 7.4
[7] = aqueous with cosolvent or surfactant or cyclodextrin, 10% HP-β-CD buffer pH 4, read-out: Solubility, 10% HP-β-CD buffer pH 4
[8] = aqueous with cosolvent or surfactant or cyclodextrin, 10% HP-β-CD buffer pH 7.4, read-out: Solubility, 10% HP-β-CD buffer pH 7.4
[9] = aqueous with cosolvent or surfactant or cyclodextrin, 20% HP-β-CD buffer pH 4, read-out: Solubility, 20% HP-β-CD buffer pH 4
[10] = aqueous with cosolvent or surfactant or cyclodextrin, 20% HP-β-CD buffer pH 7.4, read-out: Solubility, 20% HP-β-CD buffer pH 7.4

| SMILES | IC50 [1] | CC50 at 72 h [2] | solubility at 4 days [3, 4] | solubility at 4 days [3, 5] | solubility at 4 days [3, 6] | solubility at 4 days [3, 7] | solubility at 4 days [3, 8] | solubility at 4 days [3, 9] | solubility at 4 days [3, 10] | MIC90 (S. aureus ATCC 29213) | MIC90 (S. aureus ATCC 43300) | MIC90 (S. aureus NRS119) | MIC90 (S. aureus NRS120) | MIC90 (S. aureus NRS121) |
| --- | --- | --- | --- | --- | --- | --- | --- | --- | --- | --- | --- | --- | --- | --- |
| O=C1CCc2cc(/C=C/C(=O)N3CCC=C(c4ccccc4)CC3)cnc2N1 [Co. No. 2] | 884 nM | > 9.38 µg/mL | 2 µg/mL (≈ 5.36 µM) | < 2 µg/mL | 3 µg/mL (≈ 8.03 µM) | 1150 µg/mL (≈ 3080 µM) | 1080 µg/mL (≈ 2900 µM) | 980 µg/mL (≈ 2620 µM) | 1050 µg/mL (≈ 2820 µM) | 0.06 µg/mL (≈ 0.161 µM) | 0.06 µg/mL (≈ 0.161 µM) | 0.125 µg/mL (≈ 0.335 µM) | 0.06 µg/mL (≈ 0.161 µM) | 0.125 µg/mL (≈ 0.335 µM) |
| COc1ccc(F)cc1C1=CCCN(C(=O)/C=C/c2cnc3c(c2)CCC(=O)N3)CC1 [Co. No. 27] | 1070 nM | > 10.6 µg/mL | < 10 µg/mL | < 10 µg/mL | < 10 µg/mL | 220 µg/mL (≈ 522 µM) | 250 µg/mL (≈ 593 µM) | 440 µg/mL (≈ 1040 µM) | 590 µg/mL (≈ 1400 µM) | 0.06 µg/mL (≈ 0.142 µM) | 0.06 µg/mL (≈ 0.142 µM) | 0.06 µg/mL (≈ 0.142 µM) | 0.125 µg/mL (≈ 0.297 µM) | 0.06 µg/mL (≈ 0.142 µM) |
